# Paper PMC10177727 (Clinical Drug Investigation, 2023)
# Like-named read-outs stand apart in the source and are kept apart here.
# What was measured:
# [1] = system: CYP3A
# [2] = system: CYP3A; conditions: with itraconazole, prednisolone 20 mg administered on Day 5; cited from earlier work
# [3] = system: CYP3A; assay: clinical; conditions: human, in vivo, po, 10 mg; for half-life: t1/2,z GLS mean
# [4] = Safety and tolerability: treatment-emergent adverse events; format: in vivo, healthy Japanese adult participants; conditions: midazolam cohort (ensitrelvir 375/125 mg + midazolam 2 mg), N = 14
# [5] = system: CYP3A; assay: clinical; conditions: human, in vivo, po, 2 mg, midazolam 2 mg alone, Day -2
# [6] = system: CYP3A; conditions: with ensitrelvir 750/250 mg; cited from earlier work
# [7] = system: CYP3A; conditions: midazolam with ensitrelvir 375/125 mg / midazolam alone, Day 5/Day -2
# [8] = 5th day after the last ensitrelvir dose / prednisolone alone, Day 9/Day -2
# [9] = 10th day after the last ensitrelvir dose / prednisolone alone, Day 14/Day -2
# [10] = prednisolone with ensitrelvir 750/250 mg / prednisolone alone, Day 5/Day -2
smiles,measurement,setting,value
C[C@]12C=CC(=O)C=C1CC[C@@H]1[C@@H]2[C@@H](O)C[C@@]2(C)[C@H]1CC[C@]2(O)C(=O)CO [Prednisolone],AUC0–inf GLS mean ratio (90% CI),[1]; [8],1.1243 (1.0973–1.1521)
same,AUC0–last GLS mean ratio (90% CI),[1]; [8],1.1142 (1.0842–1.1451)
same,Cmax GLS mean ratio (90% CI),[1]; [8],1.0953 (0.9865–1.2160)
same,MRT GLS mean ratio (90% CI),[1]; [8],1.0569 (1.0095–1.1065)
same,"t1/2,z GLS mean ratio (90% CI)",[1]; [8],1.0660 (1.0349–1.0980)
same,λz GLS mean ratio (90% CI),[1]; [8],0.9381 (0.9107–0.9663)
same,AUC0–inf GLS mean ratio (90% CI),[1]; [9],1.0396 (1.0146–1.0653)
same,AUC0–last GLS mean ratio (90% CI),[1]; [9],1.0267 (0.9990–1.0552)
same,Cmax GLS mean ratio (90% CI),[1]; [9],0.9927 (0.8941–1.1021)
same,MRT GLS mean ratio (90% CI),[1]; [9],1.0419 (0.9952–1.0908)
same,"t1/2,z GLS mean ratio (90% CI)",[1]; [9],1.0474 (1.0169–1.0789)
same,λz GLS mean ratio (90% CI),[1]; [9],0.9547 (0.9269–0.9834)
same,AUC0–inf GLS mean ratio (90% CI),[1]; [10],1.2476 (1.2176–1.2784)
same,AUC0–last GLS mean ratio (90% CI),[1]; [10],1.2408 (1.2073–1.2752)
same,Cmax GLS mean ratio (90% CI),[1]; [10],1.1141 (1.0035–1.2369)
same,MRT GLS mean ratio (90% CI),[1]; [10],1.1065 (1.0569–1.1584)
same,"t1/2,z GLS mean ratio (90% CI)",[1]; [10],1.1160 (1.0835–1.1496)
same,λz GLS mean ratio (90% CI),[1]; [10],0.8960 (0.8699–0.9230)
same,AUC of prednisolone increase,[2],1.24 fold
same,AUC(0-inf),"[3]; AUC0–inf GLS mean, prednisolone 10 mg alone, Day -2",1090 ng·h/mL
same,AUC(0-t),"[3]; AUC0–last GLS mean, prednisolone 10 mg alone, Day -2",1040 ng·h/mL
same,Cmax,"[3]; Cmax GLS mean, prednisolone 10 mg alone, Day -2",243 ng/mL
same,MRT,"[3]; MRT GLS mean, prednisolone 10 mg alone, Day -2",4.26 h
same,half-life,"[3]; prednisolone 10 mg alone, Day -2",2.55 h
same,half-life,"[3]; prednisolone 10 mg, 5th day after the last ensitrelvir dose, Day 9",2.71 h
same,half-life,"[3]; prednisolone 10 mg, 10th day after the last ensitrelvir dose, Day 14",2.67 h
same,k el,"[3]; λz GLS mean, prednisolone 10 mg alone, Day -2",7.56e-05 s⁻¹
Cc1ncc2n1-c1ccc(Cl)cc1C(c1ccccc1F)=NC2 [Midazolam],"Diarrhea, events related to midazolam",[4],1
same,"Somnolence, events related to midazolam",[4],8
same,AUC(0-inf),[5]; AUC0–inf GLS mean,24.1 ng·h/mL
same,AUC(0-t),[5]; AUC0–last GLS mean,23.4 ng·h/mL
same,Cmax,[5]; Cmax GLS mean,12.6 ng/mL
same,MRT,[5]; MRT GLS mean,3.18 h
same,half-life,"[5]; t1/2,z GLS mean",3.24 h
same,k el,[5]; λz GLS mean,5.94e-05 s⁻¹
same,increase in the plasma exposure of midazolam,[6],8.80 fold
same,increased ratio of Cmax of midazolam,[6],2.78 fold
same,AUC0–inf GLS mean ratio (90% CI),[7],6.7685 (6.1572–7.4404)
same,AUC0–last GLS mean ratio (90% CI),[7],6.9011 (6.2722–7.5931)
same,Cmax GLS mean ratio (90% CI),[7],2.8012 (2.3798–3.2971)
same,MRT GLS mean ratio (90% CI),[7],2.6506 (2.4623–2.8532)
same,"t1/2,z GLS mean ratio (90% CI)",[7],2.2750 (2.0373–2.5406)
same,λz GLS mean ratio (90% CI),[7],0.4396 (0.3936–0.4909)
